These results are taken from the OligoGym collection.

HELM strings list units from the 5' end as sugar, base in round brackets, then linkage (d deoxyribose, r ribose, m 2'-O-methyl, p phosphodiester). Strings are as the collection lists them; they lack the last nucleoside at the 3' end of the tested compound. [moe] = 2'-O-(2-methoxyethyl) (MOE); [sp] = phosphorothioate linkage; [m5C] = 5-methylcytosine

The target of the data set is UBE3A-ATS. As to the kind of experiment: mouse, dose not given. The following applies: ASO.

“RNA1{[moe](G)[sp].[moe](T)p.[moe]([m5C])p.[moe](T)p.[moe]([m5C])p.d(T)[sp].d(G)[sp].d([m5C])[sp].d(T)[sp].d([m5C])[sp].d(A)[sp].d(G)[sp].d(T)[sp].d(T)[sp].d(A)[sp].[moe](G)p.[moe](G)p.[moe](T)[sp].[moe](T)}$$$$ (last 3' nucleoside missing)” gave a 3 h FOB score of 1 score 0-7.

As to “RNA1{[moe](A)[sp].[moe](A)p.[moe](A)p.[moe](T)p.[moe]([m5C])p.d([m5C])[sp].d(A)[sp].d(T)[sp].d(T)[sp].d(T)[sp].d(G)[sp].d(T)[sp].d([m5C])[sp].d([m5C])[sp].d(A)[sp].[moe](G)p.[moe](T)p.[moe]([m5C])[sp].[moe](T)}$$$$ (last 3' nucleoside missing)”, the 3 h FOB score worked out at 4.2 score 0-7.

Regarding “RNA1{[moe](G)[sp].[moe]([m5C])p.[moe](T)p.[moe]([m5C])p.[moe](A)p.d(T)[sp].d([m5C])[sp].d(A)[sp].d([m5C])[sp].d(A)[sp].d(A)[sp].d([m5C])[sp].d(T)[sp].d(G)[sp].d(G)[sp].[moe](G)p.[moe](T)p.[moe](G)[sp].[moe](G)}$$$$ (last 3' nucleoside missing)”, the 3 h FOB score was 1 score 0-7.

Substance “RNA1{[moe](A)[sp].[moe]([m5C])p.[moe](T)p.[moe](T)p.[moe](T)p.d([m5C])[sp].d(A)[sp].d(T)[sp].d([m5C])[sp].d(A)[sp].d(G)[sp].d(T)[sp].d(T)[sp].d(A)[sp].d(G)[sp].[moe](T)p.[moe]([m5C])p.[moe](A)[sp].[moe](G)}$$$$ (last 3' nucleoside missing)” gave a 3 h FOB score of 5.2 score 0-7.

Take “RNA1{[moe](T)[sp].[moe](G)[sp].[moe]([m5C])[sp].[moe]([m5C])[sp].[moe](A)[sp].d(T)[sp].d([m5C])[sp].d(T)[sp].d(T)[sp].d([m5C])[sp].d(A)[sp].d(A)[sp].d(G)[sp].d(A)[sp].d([m5C])[sp].[moe](T)[sp].[moe](A)[sp].[moe](A)[sp].[moe](G)}$$$$ (last 3' nucleoside missing)”: the 3 h FOB score was 6.8 score 0-7.

The substance “RNA1{[moe](G)[sp].[moe]([m5C])p.[moe](T)p.[moe](T)p.d([m5C])[sp].d(A)[sp].d([m5C])[sp].d([m5C])[sp].d(A)[sp].d(T)[sp].d(T)[sp].d(T)[sp].d(T)[sp].d(G)[sp].[moe](A)p.[moe]([m5C])p.[moe]([m5C])p.[moe](T)[sp].[moe](T)}$$$$ (last 3' nucleoside missing)” displayed a 3 h FOB score of 0 score 0-7.

“RNA1{[moe](T)[sp].[moe](G)p.[moe](T)p.[moe](A)p.[moe]([m5C])p.d(A)[sp].d(A)[sp].d(A)[sp].d([m5C])[sp].d(G)[sp].d(G)[sp].d(G)[sp].d([m5C])[sp].d(T)[sp].d(A)[sp].[moe](T)p.[moe](G)p.[moe](T)[sp].[moe](G)}$$$$ (last 3' nucleoside missing)” had a 3 h FOB score of 7 score 0-7.

“RNA1{[moe]([m5C])[sp].[moe](T)p.[moe](G)p.[moe]([m5C])p.d(T)[sp].d(T)[sp].d([m5C])[sp].d(A)[sp].d([m5C])[sp].d([m5C])[sp].d(A)[sp].d(T)[sp].d(T)[sp].d(T)[sp].[moe](T)p.[moe](G)p.[moe](A)p.[moe]([m5C])[sp].[moe]([m5C])}$$$$ (last 3' nucleoside missing)” registered a 3 h FOB score of 0 score 0-7.

Substance “RNA1{[moe](T)[sp].[moe](G)p.[moe](G)p.[moe](G)p.[moe](T)p.d(T)[sp].d(A)[sp].d([m5C])[sp].d(T)[sp].d(T)[sp].d(T)[sp].d([m5C])[sp].d([m5C])[sp].d(A)[sp].d(A)[sp].[moe](T)p.[moe](A)p.[moe](G)[sp].[moe](A)}$$$$ (last 3' nucleoside missing)” came in with a 3 h FOB score of 5.7 score 0-7.

As for “RNA1{[moe]([m5C])[sp].[moe](G)p.[moe](T)p.[moe]([m5C])p.[moe](T)p.d(T)[sp].d([m5C])[sp].d([m5C])[sp].d([m5C])[sp].d(G)[sp].d([m5C])[sp].d(A)[sp].d([m5C])[sp].d([m5C])[sp].d(A)[sp].[moe](T)p.[moe](G)p.[moe]([m5C])[sp].[moe](A)}$$$$ (last 3' nucleoside missing)”, the 3 h FOB score was determined as 2 score 0-7.

In the case of “RNA1{[moe](T)[sp].[moe](G)p.[moe]([m5C])p.[moe](A)p.[moe](T)p.[moe](A)[sp].d([m5C])[sp].d([m5C])[sp].d([m5C])[sp].d(A)[sp].d(G)[sp].d(G)[sp].d(G)[sp].d(T)[sp].[moe](A)p.[moe](G)[sp].[moe](G)}$$$$ (last 3' nucleoside missing)”, the 3 h FOB score was found to be 2 score 0-7.

As for “RNA1{[moe](T)[sp].[moe](G)p.[moe]([m5C])p.[moe](T)p.[moe]([m5C])[sp].d(A)[sp].d(G)[sp].d(T)[sp].d(T)[sp].d(A)[sp].d(G)[sp].d(G)[sp].d(T)[sp].[moe](T)p.[moe](A)p.[moe](G)[sp].[moe](T)}$$$$ (last 3' nucleoside missing)”, the 3 h FOB score turned out to be 6.3 score 0-7.

Turning to “RNA1{[moe](T)[sp].[moe](G)p.[moe]([m5C])p.[moe](T)p.[moe]([m5C])p.[moe](A)p.d(G)[sp].d(T)[sp].d(T)[sp].d(A)[sp].d(G)[sp].d(G)[sp].d(T)[sp].d(T)[sp].d(A)[sp].d(G)[sp].[moe](T)p.[moe](G)[sp].[moe]([m5C])}$$$$ (last 3' nucleoside missing)”, the 3 h FOB score was found to be 4 score 0-7.

With “RNA1{[moe](A)[sp].[moe](A)p.[moe](A)p.[moe](A)p.[moe]([m5C])p.d(G)[sp].d([m5C])[sp].d(A)[sp].d(A)[sp].d(T)[sp].d(G)[sp].d(T)[sp].d(A)[sp].d(T)[sp].d([m5C])[sp].[moe](A)p.[moe](G)p.[moe](G)[sp].[moe]([m5C])}$$$$ (last 3' nucleoside missing)”, the 3 h FOB score is 0.7 score 0-7.

“RNA1{[moe](G)[sp].[moe]([m5C])p.[moe](A)p.[moe](A)p.[moe](A)p.d(T)[sp].d(A)[sp].d([m5C])[sp].d(A)[sp].d(A)[sp].d(T)[sp].d(G)[sp].d(G)[sp].d(T)[sp].d(A)[sp].[moe](A)p.[moe](T)p.[moe]([m5C])[sp].[moe](G)}$$$$ (last 3' nucleoside missing)”: the 3 h FOB score was 4.2 score 0-7.

For “RNA1{[moe](T)[sp].[moe](T)p.[moe](A)p.[moe](G)p.[moe](G)p.d(T)[sp].d(T)[sp].d(A)[sp].d(G)[sp].d(T)[sp].d(G)[sp].d([m5C])[sp].d(A)[sp].d([m5C])[sp].d(A)[sp].[moe](G)p.[moe](A)p.[moe](T)[sp].[moe](A)}$$$$ (last 3' nucleoside missing)”, the 3 h FOB score turned out to be 6 score 0-7.

“RNA1{[moe]([m5C])[sp].[moe](T)p.[moe](G)p.[moe]([m5C])p.[moe](T)p.[moe]([m5C])p.d(A)[sp].d(G)[sp].d(T)[sp].d(T)[sp].d(A)[sp].d(G)[sp].d(G)[sp].d(T)[sp].d(T)[sp].d(A)[sp].[moe](G)p.[moe](T)[sp].[moe](G)}$$$$ (last 3' nucleoside missing)”: the 3 h FOB score stood at 3 score 0-7.

As for “RNA1{[moe](T)[sp].[moe]([m5C])p.[moe](A)p.[moe](T)p.[moe](G)p.d(T)[sp].d(G)[sp].d([m5C])[sp].d(A)[sp].d(T)[sp].d(A)[sp].d([m5C])[sp].d([m5C])[sp].d([m5C])[sp].d(A)[sp].[moe](G)p.[moe](G)p.[moe](G)[sp].[moe](T)}$$$$ (last 3' nucleoside missing)”, the 3 h FOB score stood at 1 score 0-7.

Take “RNA1{[moe](A)[sp].[moe](G)p.[moe](T)p.[moe](G)p.[moe](G)p.d(T)[sp].d(T)[sp].d(G)[sp].d([m5C])[sp].d([m5C])[sp].d(T)[sp].d(T)[sp].d(A)[sp].d(G)[sp].d(T)[sp].[moe](A)p.[moe](T)p.[moe](T)[sp].[moe](A)}$$$$ (last 3' nucleoside missing)”: the 3 h FOB score amounted to 6 score 0-7.

The substance “RNA1{[moe]([m5C])[sp].[moe](A)p.[moe](G)p.[moe]([m5C])p.[moe]([m5C])p.d(A)[sp].d([m5C])[sp].d(T)[sp].d(T)[sp].d(T)[sp].d(G)[sp].d([m5C])[sp].d(A)[sp].d(A)[sp].d([m5C])[sp].[moe](T)p.[moe]([m5C])p.[moe](A)[sp].[moe](A)}$$$$ (last 3' nucleoside missing)” gave a 3 h FOB score of 6.2 score 0-7.

With “RNA1{[moe]([m5C])[sp].[moe](A)p.[moe](T)p.[moe]([m5C])p.[moe](A)p.d(T)[sp].d(G)[sp].d(A)[sp].d(T)[sp].d([m5C])[sp].d(T)[sp].d(T)[sp].d(G)[sp].d(G)[sp].d(T)[sp].[moe](A)p.[moe](A)p.[moe](G)[sp].[moe](G)}$$$$ (last 3' nucleoside missing)”, the 3 h FOB score is 3 score 0-7.

In the case of “RNA1{[moe](A)[sp].[moe](G)p.[moe](T)p.[moe]([m5C])p.[moe](T)p.d(T)[sp].d([m5C])[sp].d(A)[sp].d(T)[sp].d(T)[sp].d(A)[sp].d(T)[sp].d(T)[sp].d([m5C])[sp].d(T)[sp].[moe]([m5C])p.[moe](T)p.[moe](A)[sp].[moe](G)}$$$$ (last 3' nucleoside missing)”, the 3 h FOB score was 1 score 0-7.

The substance “RNA1{[moe](T)[sp].[moe](A)p.[moe](A)p.[moe](G)p.[moe](T)p.d(A)[sp].d(T)[sp].d(A)[sp].d(G)[sp].d(A)[sp].d(T)[sp].d(G)[sp].d([m5C])[sp].d([m5C])[sp].d(T)[sp].[moe]([m5C])p.[moe](T)p.[moe]([m5C])[sp].[moe]([m5C])}$$$$ (last 3' nucleoside missing)” came in with a 3 h FOB score of 3.7 score 0-7.

The substance “RNA1{[moe](G)[sp].[moe](T)p.[moe](G)p.[moe](G)p.[moe](T)p.d(T)[sp].d(G)[sp].d([m5C])[sp].d([m5C])[sp].d(T)[sp].d(T)[sp].d(A)[sp].d(G)[sp].d(T)[sp].d(A)[sp].[moe](T)p.[moe](T)p.[moe](A)[sp].[moe]([m5C])}$$$$ (last 3' nucleoside missing)” gave a 3 h FOB score of 2.2 score 0-7.

As for “RNA1{[moe](T)[sp].[moe](T)p.[moe](G)p.[moe](G)p.[moe](T)p.[moe]([m5C])[sp].d(A)[sp].d(T)[sp].d([m5C])[sp].d(T)[sp].d([m5C])[sp].d(G)[sp].d(G)[sp].d(G)[sp].[moe](T)p.[moe](A)[sp].[moe](T)}$$$$ (last 3' nucleoside missing)”, the 3 h FOB score came to 6.7 score 0-7.
